# Reference: patent US11612570B2, “Decreased adhesivity receptor-targeted nanoparticles for Fn14-positive tumors” (UNIVERSITY OF MARYLAND, BALTIMORE, priority 2014, dated 2023)
# Assays:
# [1] = system: 231-Luc cells; experiment: In vitro cytotoxicity (MTS assay); assay type: cell-based, human
# Experimental: For cytotoxicity assays, 231-Luc cells were cultured in 96-well plates at 5×10^3 cells/well for 24 hours. Culture media was removed and replaced with media containing various treatment groups. […] The culture media was removed after 2 hours of incubation to mimic the clearance mechanism and replaced with fresh culture media. Cell viability was then measured after 24 hours with percent viability calculated as absorbance relative to control wells (cell with culture media). A total of 3 wells were used per treatment per concentration for each experiment.
# [2] = system: 231-Br-Luc cells; experiment: In vitro cytotoxicity (MTS assay) in brain-seeking TNBC cells; assay type: cell-based, human; conditions: 24 hours' incubation
structure (smiles),measurement,setting,value
"CC(=O)O[C@H]1C(=O)[C@@]2(C)[C@H]([C@H](OC(=O)c3ccccc3)[C@]3(O)C[C@H](OC(=O)[C@H](O)[C@@H](NC(=O)c4ccccc4)c4ccccc4)C(C)=C1C3(C)C)[C@]1(OC(C)=O)CO[C@@H]1C[C@@H]2O [PTX, Paclitaxel]",effect on cell viability / cytotoxicity,"[1]; 2 hours exposure, then fresh media for 24 hours",only a small effect on cell viability
same,cytotoxicity,[1]; 24 hours in culture media,more potent than Abraxane™
same,cell sensitivity (viability),[2],sensitive to PTX treatment in vitro
